We go through 10 compounds from patent US11945801B2, “Bicyclic aza compounds as muscarinic M1 and/or M4 receptor agonists” (Heptares Therapeutics Limited, priority 2018, dated 2024).

Where two headings read alike, the source gives them in different places.

Assay type in all cases: cell-based
Experiment [1] addresses T1, human muscarinic M1 receptor (Homo sapiens, UniProt P11229).
T1 sequence (P11229 1-460): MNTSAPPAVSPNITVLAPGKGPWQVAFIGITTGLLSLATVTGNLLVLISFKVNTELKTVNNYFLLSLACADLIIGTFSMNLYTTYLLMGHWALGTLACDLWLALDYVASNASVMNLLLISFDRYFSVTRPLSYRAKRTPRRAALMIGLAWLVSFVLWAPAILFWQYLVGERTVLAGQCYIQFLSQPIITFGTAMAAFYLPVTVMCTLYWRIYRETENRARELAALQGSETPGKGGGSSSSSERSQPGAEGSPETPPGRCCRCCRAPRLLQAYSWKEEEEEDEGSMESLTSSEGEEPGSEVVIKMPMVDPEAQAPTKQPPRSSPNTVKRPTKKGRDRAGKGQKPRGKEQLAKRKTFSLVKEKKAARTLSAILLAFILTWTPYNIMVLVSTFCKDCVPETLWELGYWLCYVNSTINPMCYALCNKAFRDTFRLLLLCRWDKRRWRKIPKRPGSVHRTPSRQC
Description: Alphascreen Surefire phospho-ERK1/2 functional assay, M1. To be noted: for EC50: agonist 5 min, 37° C.; for Emax: CHO. On the procedure:
(§1) ERK1/2 phosphorylation is a downstream consequence of both Gq/11 and Gi/o protein coupled receptor activation, making it highly suitable for the assessment of M1, M3 (Gq/11 coupled) and M2, M4 receptors (Gi/o coupled), rather than using different assay formats for different receptor subtypes. CHO cells stably expressing the human muscarinic M1, M2, M3 or M4 receptor were plated (25K/well) onto 96-well tissue culture plates in MEM-alpha+10% dialysed FBS. Once adhered, cells were serum-starved overnight. Agonist stimulation was performed by the addition of 5 μL agonist to the cells for 5 min (37° C.). Media was removed and 50 μL of lysis buffer added. After […], a 4 μL sample was transferred to 384-well plate and 7 μL of detection mixture added.
(§2) Isomer assignment (Isomer 1, Isomer 2, etc.) is based on the retention time of the compound using the separation technique that was performed in the final purification step. By implication, this could be reversed phase HPLC, chiral HPLC or chiral SFC retention time, and this will vary from compound to compound.

For experiment [2], the target named is T2, human muscarinic M2 receptor (Homo sapiens, UniProt P08172).
T2 sequence (P08172 1-466): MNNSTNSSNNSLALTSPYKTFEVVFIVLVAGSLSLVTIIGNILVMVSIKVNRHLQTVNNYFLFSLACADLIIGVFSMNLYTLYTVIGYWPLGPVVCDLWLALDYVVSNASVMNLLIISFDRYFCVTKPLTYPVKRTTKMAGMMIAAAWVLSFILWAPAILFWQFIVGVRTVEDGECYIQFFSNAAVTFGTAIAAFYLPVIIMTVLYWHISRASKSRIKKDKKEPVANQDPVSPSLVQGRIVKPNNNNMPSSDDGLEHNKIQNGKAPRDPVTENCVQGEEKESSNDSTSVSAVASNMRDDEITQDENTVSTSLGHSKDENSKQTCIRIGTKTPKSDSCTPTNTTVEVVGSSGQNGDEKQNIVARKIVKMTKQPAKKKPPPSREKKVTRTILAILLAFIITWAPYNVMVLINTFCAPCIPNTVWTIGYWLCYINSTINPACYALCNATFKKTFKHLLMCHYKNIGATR
Nature of the experiment: Alphascreen Surefire phospho-ERK1/2 functional assay, M2. To be noted: for Emax: CHO. As for the experimental part: as §1, §2

Experiment [3] deals with T3, human muscarinic M3 receptor (Homo sapiens, UniProt P20309).
T3 construct: expressed in transfected cells
Description: Alphascreen Surefire phospho-ERK1/2 functional assay, M3. To be noted: for Emax: CHO. On the procedure:
as §1, §2

Experiment [4] has as its target T4, human muscarinic M4 receptor (Homo sapiens, UniProt P08173).
T4 construct: expressed in transfected cells
T4 sequence (P08173 1-479): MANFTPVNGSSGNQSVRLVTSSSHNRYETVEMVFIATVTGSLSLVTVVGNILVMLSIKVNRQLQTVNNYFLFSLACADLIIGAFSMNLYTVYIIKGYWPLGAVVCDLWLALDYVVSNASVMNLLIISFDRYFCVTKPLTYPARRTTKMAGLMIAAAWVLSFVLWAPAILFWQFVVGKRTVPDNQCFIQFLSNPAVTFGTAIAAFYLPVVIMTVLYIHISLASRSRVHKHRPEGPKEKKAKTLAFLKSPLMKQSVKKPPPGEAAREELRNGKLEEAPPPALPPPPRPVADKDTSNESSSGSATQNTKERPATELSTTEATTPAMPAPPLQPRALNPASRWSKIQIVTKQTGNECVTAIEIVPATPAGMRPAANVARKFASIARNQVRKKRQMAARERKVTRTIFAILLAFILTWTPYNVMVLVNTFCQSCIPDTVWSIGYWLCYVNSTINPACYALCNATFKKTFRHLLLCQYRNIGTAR
Nature of the experiment: Alphascreen Surefire phospho-ERK1/2 functional assay, M4. The following applies: for EC50 / % Emax cf. ACh, M4: CHO cells stably expressing human M4; for EC50: agonist 5 min, 37° C., read-out: pEC50 M4 (converted); for Emax: CHO. On the procedure:
as §1, §2

[5] abbreviates: CHO cells stably expressing human M1, read-out: pEC50 M1 (converted).
[6] abbreviates: read-out: % Emax cf. ACh, M1, CHO cells stably expressing human M1, Emax relative to ACh.
Setting [7] is: CHO cells stably expressing human M2, agonist 5 min, 37° C., read-out: pEC50 M2 (converted).
Setting [8] is: read-out: % Emax cf. ACh, M2, CHO cells stably expressing human M2, Emax relative to ACh.
Where [9] appears, read: CHO cells stably expressing human M3, agonist 5 min, 37° C., read-out: pEC50 M3 (converted).
[10] abbreviates: read-out: % Emax cf. ACh, M3, CHO cells stably expressing human M3, Emax relative to ACh.
Where [11] appears, read: read-out: % Emax cf. ACh, M4, CHO cells stably expressing human M4, Emax relative to ACh.

T3 sequence (P20309 whole entry): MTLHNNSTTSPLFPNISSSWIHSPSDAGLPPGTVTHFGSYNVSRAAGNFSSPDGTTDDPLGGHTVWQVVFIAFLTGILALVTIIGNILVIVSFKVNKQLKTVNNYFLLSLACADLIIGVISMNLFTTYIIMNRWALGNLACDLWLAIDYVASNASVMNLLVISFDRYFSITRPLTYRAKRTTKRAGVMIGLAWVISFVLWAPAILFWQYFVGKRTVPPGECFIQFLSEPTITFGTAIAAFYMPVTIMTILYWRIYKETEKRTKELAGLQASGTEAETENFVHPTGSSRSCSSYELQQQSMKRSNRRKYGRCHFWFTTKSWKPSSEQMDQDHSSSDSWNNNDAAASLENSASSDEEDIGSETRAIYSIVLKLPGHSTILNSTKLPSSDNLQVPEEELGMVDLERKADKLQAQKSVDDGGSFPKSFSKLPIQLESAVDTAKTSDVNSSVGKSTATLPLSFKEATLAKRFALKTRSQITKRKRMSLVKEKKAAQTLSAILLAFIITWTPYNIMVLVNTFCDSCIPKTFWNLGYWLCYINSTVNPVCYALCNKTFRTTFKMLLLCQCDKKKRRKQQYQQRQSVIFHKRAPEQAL

As to `CCOC(=O)N1CC2CCC1CC2N1CC(CC(=O)N2CCCCC2)C1` (single isomer, unassigned) [Example 2-3 Isomer 1, Ethyl-5-(3-(2-oxo-2-(piperidin-1-yl)ethyl)azetidin-1-yl)-2-azabicyclo[2.2.2]octane-2-carboxylate], the EC50 in experiment [1] (setting [5]) was 204 nM; in experiment [2] (setting [7]), over 20000 nM; in experiment [3] (setting [9]) it was over 20000 nM; in experiment [4] it was 6460 nM. In addition, the Emax in experiment [1] (setting [6]) amounted to 88%; in experiment [2] (setting [8]) it was 10%; in experiment [3] (setting [10]), 9%; in experiment [4] (setting [11]) it was 46%.
`CCOC(=O)N1CC2CCC1CC2N1CC(CC(=O)N(CC)CC)C1` (single isomer, unassigned) [Example 2-1 Isomer 1, Ethyl-5-(3-(2-(diethylamino)-2-oxoethyl)azetidin-1-yl)-2-azabicyclo[2.2.2]octane-2-carboxylate]: the EC50 in experiment [1] (setting [5]) is 209 nM; in experiment [2] (setting [7]), over 20000 nM; in experiment [3] (setting [9]), over 20000 nM; in experiment [4] it was over 20000 nM. In addition, the Emax is 67% in experiment [1] (setting [6]), 13% in experiment [2] (setting [8]), 6% in experiment [3] (setting [10]) and 9% in experiment [4] (setting [11]).
With `CCOC(=O)N1C2CCC1CC(N1CC(CC(=O)N(CC)CC)C1)C2` (single isomer, unassigned) [Example 1-1 Isomer 2, Ethyl-3-(3-(2-(diethylamino)-2-oxoethyl)azetidin-1-yl)-8-azabicyclo[3.2.1]octane-8-carboxylate], the EC50 in experiment [1] (setting [5]) is 316 nM; in experiment [2] (setting [7]), 1260 nM; in experiment [3] (setting [9]), over 20000 nM; in experiment [4] it was 200 nM. Besides, the Emax in experiment [1] (read-out: % Emax cf. ACh, M1) turned out to be 100%; in experiment [2] (read-out: % Emax cf. ACh, M2), 58%; in experiment [3] (read-out: % Emax cf. ACh, M3) it was 28%; in experiment [4] (read-out: % Emax cf. ACh, M4), 85%.
For the compound `CCOC(=O)N1CC2(CCC(N3CC(OC(=O)N4CCCOCC4)C3)C2)C1` (single isomer, unassigned) [Example 4-9 Isomer 1, 1-(2-(Ethoxycarbonyl)-2-azaspiro[3.4]octan-6-yl)azetidin-3-yl 1,4-oxazepane-4-carboxylate], the “% Emax cf. ACh, M1” value in experiment [1] (CHO cells stably expressing human M1, Emax relative to ACh, listed as 4-9 Isomer 1) amounted to 37%. Besides, the EC50 in experiment [1] (setting [5]) is 57.5 nM; in experiment [2] (setting [7]) it was over 20000 nM; in experiment [3] (setting [9]) it was over 20000 nM; in experiment [4] it was over 20000 nM. Further, the Emax in experiment [2] (setting [8]) turned out to be 3%; in experiment [3] (setting [10]) it was 2%. Moreover, in experiment [4] (Emax relative to ACh, listed as 4-9 Isomer 1), the “% Emax cf. ACh, M4” value was found to be 7%.
Take `CCOC(=O)N1CC2(CCC(N3CC(OC(=O)N(C)CC)C3)C2)C1` (single isomer, unassigned) [Example 4-4 Isomer 1, Ethyl 6-(3-((ethyl(methyl)carbamoyl)oxy)azetidin-1-yl)-2-azaspiro[3.4]octane-2-carboxylate]: the EC50 in experiment [1] (setting [5]) is 58.9 nM; in experiment [2] (setting [7]) it was over 20000 nM; in experiment [3] (setting [9]), over 20000 nM; in experiment [4] it was 22.9 nM. Further, the Emax turned out to be 67% in experiment [1] (setting [6]), 5% in experiment [2] (setting [8]), 0% in experiment [3] (setting [10]) and 37% in experiment [4] (setting [11]).
For `CCOC(=O)N1C2CCCC1CC(N1CC(CC(=O)N3CCCCC3)C1)C2` (single isomer, unassigned) [Example 3-3 Isomer 1, Ethyl-3-(3-(2-oxo-2-(piperidin-1-yl)ethyl)azetidin-1-yl)-9-azabicyclo[3.3.1]nonane-9-carboxylate], the EC50 was 316 nM in experiment [1] (setting [5]), over 20000 nM in experiment [2] (setting [7]), over 20000 nM in experiment [3] (setting [9]) and 1290 nM in experiment [4]. Besides, the Emax in experiment [1] (read-out: % Emax cf. ACh, M1) was found to be 117%; in experiment [2] (read-out: % Emax cf. ACh, M2) it was 5%; in experiment [3] (read-out: % Emax cf. ACh, M3), 9%; in experiment [4] (read-out: % Emax cf. ACh, M4), 55%.
Take `CCOC(=O)N1CCC2(CC(N3CC(OC(=O)N(CC)CC)C3)C2)C1` (single isomer, unassigned) [Example 4-2 Isomer 2, Ethyl 2-(3-((diethylcarbamoyl)oxy)azetidin-1-yl)-6-azaspiro[3.4]octane-6-carboxylate]: the EC50 in experiment [1] (setting [5]) was 158 nM; in experiment [2] (setting [7]) it was over 20000 nM; in experiment [3] (setting [9]) it was over 20000 nM; in experiment [4], 282 nM. The Emax in experiment [1] (setting [6]) was determined as 105%; in experiment [2] (setting [8]), 14%; in experiment [3] (setting [10]) it was 17%; in experiment [4] (setting [11]), 89%.
Turning to `CCOC(=O)N1CC2CCC1CC2N1CC(CC(=O)N2CCC23CCC3)C1` (single isomer, unassigned) [Example 2-5 Isomer 1, Ethyl-5-(3-(2-oxo-2-(1-azaspiro[3.3]heptan-1-yl)ethyl)azetidin-1-yl)-2-azabicyclo[2.2.2]octane-2-carboxylate], the EC50 was 110 nM in experiment [1] (setting [5]), over 20000 nM in experiment [2] (setting [7]), over 20000 nM in experiment [3] (setting [9]) and over 20000 nM in experiment [4]. Besides, the Emax came to 64% in experiment [1] (setting [6]), 53% in experiment [2] (setting [8]), 35% in experiment [3] (setting [10]) and 23% in experiment [4] (setting [11]).
Consider `CCOC(=O)N1CC2(CCC(N3CC(OC(=O)N(CC)CC)C3)C2)C1` (single isomer, unassigned) [Example 4-5 Isomer 1, Ethyl 6-(3-((diethylcarbamoyl)oxy)azetidin-1-yl)-2-azaspiro[3.4]octane-2-carboxylate], for which the “% Emax cf. ACh, M1” value in experiment [1] (CHO cells stably expressing human M1, Emax relative to ACh, listed as 4-5 Isomer 1) was 66%. Moreover, the EC50 was 15.8 nM in experiment [1] (setting [5]), over 20000 nM in experiment [2] (setting [7]), over 20000 nM in experiment [3] (setting [9]) and 33.1 nM in experiment [4]. Also, the Emax in experiment [2] (setting [8]) worked out at 6%; in experiment [3] (setting [10]) it was 54%. Further, in experiment [4] (Emax relative to ACh, listed as 4-5 Isomer 1), the “% Emax cf. ACh, M4” value amounted to 31%.
Turning to `CCOC(=O)N1C2CCC1CC(N1CC(OC(=O)N3CCCCCC3)C1)C2` (mixture of isomers) [Example 5-1 Isomer mixture, Ethyl 3-(3-((azepane-1-carbonyl)oxy)azetidin-1-yl)-8-azabicyclo[3.2.1]octane-8-carboxylate], the Emax in experiment [1] (read-out: % Emax cf. ACh, M1) turned out to be 83%; in experiment [2] (read-out: % Emax cf. ACh, M2), 18%; in experiment [3] (read-out: % Emax cf. ACh, M3) it was 45%; in experiment [4] (read-out: % Emax cf. ACh, M4) it was 39%. For the same compound, the EC50 in experiment [1] (pEC50 M1, CHO cells stably expressing human M1) is 89.1 nM; in experiment [2], over 20000 nM; in experiment [3] it was over 20000 nM; in experiment [4] it was 427 nM.
